Patent US5462935A, “Cephalosporin compounds” (Lucky Limited, priority 1990, dated 1995)
≈ marks a conversion by molar mass, not a printed value.

Legend:
[1] = acute toxicity test, intravenous; settings: mouse, in vivo, ICR mice, observed for 14 days
Source text: The results are shown in the last row of Table 2.

[2] = tested on: Salmonella typhimurium ATCC 14028; test: minimal inhibitory concentration, two-fold agar dilution; assay type: cell-based; settings: Salmonella enterica, Muller-Hinton agar, 37° C., 20 hours
Procedure: (§1) These NIC values were taken by employing a two-fold dilution method: that is, two-fold serial dilutions of each of the test compounds were made and dispersed in a Muller-Hinton agar medium; 2 μl of the standard test strain which had the 10^7 CFU (Colony Forming Unit) per ml was inoculated on the medium; and these were incubated at 37° C. for 20 hours.

[3] = tested on: Shigella sonnei ATCC 11060; test: as above; assay type: cell-based; settings: ATCC11060, Muller-Hinton agar, 37° C., 20 hours
Procedure: as §1

[4] = tested on: Morganella morganii ATCC 8076h; test: as above; assay type: cell-based; settings: ATCC8076H, 20 h
Procedure: as §1

[5] = tested on: Enterobacter cloacae ATCC 27508; test: as above; assay type: cell-based; settings: ATCC27508, Muller-Hinton agar, 37° C., 20 hours
Procedure: as §1

ATCC 12228 = test: as above; assay type: cell-based; settings: Staphylococcus faecalis, ATCC12228, 20 h
Procedure: as §1

[6] = tested on: Acinetobacter calcoaceticus ATCC 15473; test: as above; assay type: cell-based; settings: ATCC15473, Muller-Hinton agar, 37° C., 20 hours
Procedure: as §1

[7] = tested on: Escherichia coli ATCC 10536; test: as above; assay type: cell-based; settings: ATCC10536, Muller-Hinton agar, 37° C., 20 hours
Procedure: as §1

[8] = tested on: Serratia marcescens ATCC 27117; test: as above; assay type: cell-based; settings: ATCC27117, Muller-Hinton agar, 37° C., 20 hours
Procedure: as §1

[9] = tested on: Pseudomonas aeruginosa ATCC 25619; test: as above; assay type: cell-based; settings: ATCC25619, Muller-Hinton agar, 37° C., 20 hours
Procedure: as §1

[10] = tested on: Citrobacter freundii ATCC 8090; test: as above; assay type: cell-based; settings: ATCC8090, Muller-Hinton agar, 37° C., 20 hours
Procedure: as §1

[11] = tested on: Pseudomonas aerugionsa ATCC 10145; test: as above; assay type: cell-based; settings: ATCC10145, Muller-Hinton agar, 37° C., 20 hours
Procedure: as §1

[12] = tested on: Proteus mirabilis ATCC 25933; test: as above; assay type: cell-based; settings: ATCC25933, Muller-Hinton agar, 37° C., 20 hours
Procedure: as §1

[13] = tested on: Staphylococcus epidermidis ATCC 10537; test: as above; assay type: cell-based; settings: ATCC10537, Muller-Hinton agar, 37° C., 20 hours
Procedure: as §1

[14] = tested on: Klebsiella pneumoniae ATCC 10031; test: as above; assay type: cell-based; settings: ATCC10031, Muller-Hinton agar, 37° C., 20 hours
Procedure: as §1

[15] = tested on: Enterobacter aerogenes ATCC 29751; test: as above; assay type: cell-based; settings: Klebsiella aerogenes, ATCC29751, 20 h
Procedure: as §1

[16] = tested on: Providencia rettgeri ATCC 9250; test: as above; assay type: cell-based; settings: ATCC9250, Muller-Hinton agar, 37° C., 20 hours
Procedure: as §1

[17] = tested on: Escherichia coli ATCC 25922; test: as above; assay type: cell-based; settings: ATCC25922, Muller-Hinton agar, 37° C., 20 hours
Procedure: as §1

[18] = tested on: Staphylococcus aureus ATCC 6638p; test: as above; assay type: cell-based; settings: ATCC6638P, 20 h
Procedure: as §1

[19] = tested on: Micrococcus luteus ATCC 9341; test: as above; assay type: cell-based; settings: ATCC9341, Muller-Hinton agar, 37° C., 20 hours
Procedure: as §1

[20] = tested on: Bacillus cereus ATCC 11778; test: as above; assay type: cell-based; settings: Bacillus cereus, ATCC11778, 20 h
Procedure: as §1

[21] = tested on: Streptococcus faecalis ATCC 29212; test: as above; assay type: cell-based; settings: Enterococcus faecalis, ATCC29212, Muller-Hinton agar, 37° C., 20 hours
Procedure: as §1

[22] = tested on: Bacillus megaterium ATCC 9885; test: as above; assay type: cell-based; settings: Priestia megaterium, ATCC9885, 20 h
Procedure: as §1

[23] = tested on: Proteus vulgaris ATCC 6059; test: as above; assay type: cell-based; settings: ATCC6059, Muller-Hinton agar, 37° C., 20 hours
Procedure: as §1

[24] = tested on: Shigella flexneri ATCC 11836; test: as above; assay type: cell-based; settings: ATCC11836, Muller-Hinton agar, 37° C., 20 hours
Procedure: as §1

[25] = tested on: Pseudomonas aerugionsa ATCC 27853; test: as above; assay type: cell-based; settings: ATCC27853, Muller-Hinton agar, 37° C., 20 hours
Procedure: as §1

SMILES	LD50 at 336 h [1]	MIC [2]	MIC [3]	MIC [4]	MIC [5]	MIC (ATCC 12228)	MIC [6]	MIC [7]	MIC [8]	MIC [9]	MIC [10]	MIC [11]	MIC [12]	MIC [13]	MIC [14]	MIC [15]	MIC [16]	MIC [17]	MIC [18]	MIC [19]	other results
CC[n+]1c(N)cc(N)nc1SCC1=C(C(=O)[O-])N2C(=O)C(NC(=O)/C(=N\O[C@@H](C)C(=O)O)c3csc(N)n3)[C@H]2SC1 (stereo partly drawn) [I-S-3, 7[(Z)-2-(2-aminothiazol-4-yl)-2[(S)-1-carboxyeth-1-oxyimino]acetamido]-3-[(4,6-diamino-1-ethylpyrimidinium-2-yl)thiomethyl]-3-cephem-4-carboxylate]	> 3000 mg/kg	0.13 µg/mL (≈ 0.208 µM)	0.063 µg/mL (≈ 0.101 µM)	≤ 0.008 µg/mL	≤ 0.008 µg/mL	1 µg/mL (≈ 1.6 µM)	4 µg/mL (≈ 6.41 µM)	0.031 µg/mL (≈ 0.0497 µM)	0.063 µg/mL (≈ 0.101 µM)	1 µg/mL (≈ 1.6 µM)	0.031 µg/mL (≈ 0.0497 µM)	2 µg/mL (≈ 3.21 µM)	0.031 µg/mL (≈ 0.0497 µM)	1 µg/mL (≈ 1.6 µM)	0.031 µg/mL (≈ 0.0497 µM)	1 µg/mL (≈ 1.6 µM)	≤ 0.008 µg/mL	0.031 µg/mL (≈ 0.0497 µM)	2 µg/mL (≈ 3.21 µM)	0.25 µg/mL (≈ 0.401 µM)	MIC [20]: 32 µg/mL (≈ 51.3 µM); MIC [21]: > 128 µg/mL; MIC [22]: 0.25 µg/mL (≈ 0.401 µM); MIC [23]: 0.031 µg/mL (≈ 0.0497 µM); MIC [24]: 0.016 µg/mL (≈ 0.0257 µM); MIC [25]: 1 µg/mL (≈ 1.6 µM)
CCC[n+]1c(N)cc(N)nc1SCC1=C(C(=O)[O-])N2C(=O)C(NC(=O)/C(=N\O[C@@H](C)C(=O)O)c3csc(N)n3)[C@H]2SC1 (stereo partly drawn) [I-S-4, 7-[(Z)-2-(2-aminothiazol-4-yl)-2-[(S)-1-carboxyeth-1-oxyimino]acetamido]-3-[(4,6-diamino-1-propylpyrimidinium-2-yl)thiomethyl]-3-cephem-4-carboxylate]	> 3000 mg/kg	0.13 µg/mL (≈ 0.204 µM)	0.063 µg/mL (≈ 0.0988 µM)	≤ 0.008 µg/mL	≤ 0.008 µg/mL	1 µg/mL (≈ 1.57 µM)	4 µg/mL (≈ 6.27 µM)	0.031 µg/mL (≈ 0.0486 µM)	0.13 µg/mL (≈ 0.204 µM)	1 µg/mL (≈ 1.57 µM)	0.031 µg/mL (≈ 0.0486 µM)	2 µg/mL (≈ 3.14 µM)	0.031 µg/mL (≈ 0.0486 µM)	1 µg/mL (≈ 1.57 µM)	0.031 µg/mL (≈ 0.0486 µM)	1 µg/mL (≈ 1.57 µM)	≤ 0.008 µg/mL	0.031 µg/mL (≈ 0.0486 µM)	2 µg/mL (≈ 3.14 µM)	0.13 µg/mL (≈ 0.204 µM)	MIC [20]: 32 µg/mL (≈ 50.2 µM); MIC [21]: > 128 µg/mL; MIC [22]: 0.5 µg/mL (≈ 0.784 µM); MIC [23]: 0.031 µg/mL (≈ 0.0486 µM); MIC [24]: 0.031 µg/mL (≈ 0.0486 µM); MIC [25]: 1 µg/mL (≈ 1.57 µM)
C[C@H](O/N=C(\C(=O)NC1C(=O)N2C(C(=O)[O-])=C(CSc3nc(N)cc(N)[n+]3-c3ccccc3)CS[C@H]12)c1csc(N)n1)C(=O)O (stereo partly drawn) [I-S-5, 7-[(Z)-2-(2-aminothiazol-4-yl)-2-[(S)-1-carboxyeth-1-oxyimino]acetamido]-3-[(4,6-diamino-1-phenylpyrimidinium-2-yl)thiomethyl]-3-cephem-4-carboxylate]	> 2000 mg/kg	0.5 µg/mL (≈ 0.744 µM)	0.25 µg/mL (≈ 0.372 µM)	≤ 0.008 µg/mL	0.031 µg/mL (≈ 0.0461 µM)	2 µg/mL (≈ 2.98 µM)	16 µg/mL (≈ 23.8 µM)	0.25 µg/mL (≈ 0.372 µM)	0.5 µg/mL (≈ 0.744 µM)	2 µg/mL (≈ 2.98 µM)	0.13 µg/mL (≈ 0.194 µM)	8 µg/mL (≈ 11.9 µM)	0.13 µg/mL (≈ 0.194 µM)	4 µg/mL (≈ 5.95 µM)	0.13 µg/mL (≈ 0.194 µM)	2 µg/mL (≈ 2.98 µM)	≤ 0.008 µg/mL	0.25 µg/mL (≈ 0.372 µM)	4 µg/mL (≈ 5.95 µM)	0.25 µg/mL (≈ 0.372 µM)	MIC [20]: 32 µg/mL (≈ 47.6 µM); MIC [21]: > 128 µg/mL; MIC [22]: 0.25 µg/mL (≈ 0.372 µM); MIC [23]: 0.063 µg/mL (≈ 0.0938 µM); MIC [24]: 0.13 µg/mL (≈ 0.194 µM); MIC [25]: 4 µg/mL (≈ 5.95 µM)
Cc1c(N)nc(SCC2=C(C(=O)[O-])N3C(=O)C(NC(=O)/C(=N\O[C@@H](C)C(=O)O)c4csc(N)n4)C3SC2)[n+](C)c1N (stereo partly drawn) [I-S-6, 7-[(Z)-2-(2-aminothiazol-4-yl)-2-[(S)-1-carboxyeth-1-oxyimino]acetamido]-3-[(4,6-diamino-1,5-dimethylpyrimidinium-2-yl)thiomethyl]-3-cephem-4-carboxylate]	> 3000 mg/kg	0.13 µg/mL (≈ 0.208 µM)	0.031 µg/mL (≈ 0.0497 µM)	≤ 0.008 µg/mL	≤ 0.008 µg/mL	1 µg/mL (≈ 1.6 µM)	4 µg/mL (≈ 6.41 µM)	0.031 µg/mL (≈ 0.0497 µM)	0.13 µg/mL (≈ 0.208 µM)	1 µg/mL (≈ 1.6 µM)	0.016 µg/mL (≈ 0.0257 µM)	2 µg/mL (≈ 3.21 µM)	0.031 µg/mL (≈ 0.0497 µM)	2 µg/mL (≈ 3.21 µM)	0.031 µg/mL (≈ 0.0497 µM)	0.5 µg/mL (≈ 0.802 µM)	≤ 0.008 µg/mL	0.031 µg/mL (≈ 0.0497 µM)	4 µg/mL (≈ 6.41 µM)	0.25 µg/mL (≈ 0.401 µM)	MIC [20]: 64 µg/mL (≈ 103 µM); MIC [21]: > 128 µg/mL; MIC [22]: 0.25 µg/mL (≈ 0.401 µM); MIC [23]: 0.031 µg/mL (≈ 0.0497 µM); MIC [24]: 0.016 µg/mL (≈ 0.0257 µM); MIC [25]: 1 µg/mL (≈ 1.6 µM)
